Here are results for 20 molecules from patent publication US8969325B2, “TRPV1 antagonists” (AbbVie Inc., priority 2011, dated 2015).

The structures appear in SMILES notation.

Test [1] concerns the target T1, human TRPV1 (Homo sapiens (Human), UniProt Q8NER1). Put plainly: Capsaicin Activation Assay (intracellular Ca2+, FLIPR). In kind it is cell-based. The conditions noted are these: recombinant HEK293 cells expressing hTRPV1, 50 nM capsaicin. Summed up:
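Ca2+ fluorescence was recorded by FLIPR every 1 to 5 seconds in HEK293 cells, clonally selected for stable human TRPV1 expression and plated one day ahead. Test compounds came as serial dilutions of 10 mM DMSO stocks.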

Test [2] deals with T1, human TRPV1. Put plainly: Acid Activation Assay (pH 5.0, intracellular Ca2+, FLIPR). In kind it is cell-based. The note with it: percentage of the maximal pH 5.0-induced response remaining; recombinant HEK293 hTRPV1 cells; maximum concentration tested 37.5 μM. The method, boiled down:
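Readout: peak [Ca2+]i fluorescence over baseline on FLIPR, expressed as percentage remaining of the maximal pH 5.0-evoked signal. Stable hTRPV1-HEK293 cells with Calcium-4 dye received compound (12 half-log concentrations, maximum 37.5 μM) 3 min before acidic pH 5.0 buffer.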

One may read the IC50 as the midpoint of a concentration-inhibition curve.

T1 sequence (Q8NER1 whole entry): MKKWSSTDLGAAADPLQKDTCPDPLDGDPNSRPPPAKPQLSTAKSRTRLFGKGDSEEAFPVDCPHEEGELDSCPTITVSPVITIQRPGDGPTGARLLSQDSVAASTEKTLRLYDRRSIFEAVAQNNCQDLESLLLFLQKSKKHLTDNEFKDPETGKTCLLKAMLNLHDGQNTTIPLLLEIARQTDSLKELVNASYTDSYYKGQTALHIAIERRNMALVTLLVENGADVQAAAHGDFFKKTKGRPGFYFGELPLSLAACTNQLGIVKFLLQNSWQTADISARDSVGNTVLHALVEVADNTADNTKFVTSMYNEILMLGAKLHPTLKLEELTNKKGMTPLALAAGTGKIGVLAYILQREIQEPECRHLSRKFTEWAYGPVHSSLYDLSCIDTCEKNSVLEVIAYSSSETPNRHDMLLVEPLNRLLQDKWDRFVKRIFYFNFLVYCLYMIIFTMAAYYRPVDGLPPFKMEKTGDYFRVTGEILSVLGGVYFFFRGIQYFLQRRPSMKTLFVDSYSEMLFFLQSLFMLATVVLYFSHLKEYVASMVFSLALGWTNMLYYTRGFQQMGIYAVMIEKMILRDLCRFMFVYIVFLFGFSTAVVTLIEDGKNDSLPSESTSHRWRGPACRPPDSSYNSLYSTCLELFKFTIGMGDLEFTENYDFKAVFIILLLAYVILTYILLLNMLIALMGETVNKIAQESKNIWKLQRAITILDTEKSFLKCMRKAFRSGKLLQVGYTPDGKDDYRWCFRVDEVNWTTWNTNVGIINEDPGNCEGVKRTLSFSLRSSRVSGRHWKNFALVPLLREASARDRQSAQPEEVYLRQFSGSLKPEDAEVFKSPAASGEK

Consider `CCC1(CC)C[C@@H](NC(=O)Nc2ccc3c(c2)NC(=O)CC3)c2ccc(C(F)(F)F)cc2O1` [Example 224, 1-[(4R)-2,2-diethyl-7-(trifluoromethyl)-3,4-dihydro-2H-chromen-4-yl]-3-(2-oxo-1,2,3,4-tetrahydroquinolin-7-yl)urea], for which the IC50 on human TRPV1 [1] came to 35 nM. On human TRPV1 [2], the “human TRPV1 H^+ (max % remain)” value came to 44%.
Take `CCC1(CC)C[C@@H](NC(=O)Nc2ccc3c(c2)NC(=O)CC3)c2ccc(Cl)cc2O1` [Example 225, 1-[(4R)-7-chloro-2,2-diethyl-3,4-dihydro-2H-chromen-4-yl]-3-(2-oxo-1,2,3,4-tetrahydroquinolin-7-yl)urea]: at human TRPV1 [1], the IC50 is 130 nM. Moreover, at human TRPV1 [2], the “human TRPV1 H^+ (max % remain)” value is on record as 12%.
The corresponding values for `CCC1(CC)C[C@@H](NC(=O)Nc2ccc3c(c2)NC(=O)CC3)c2ccc(Cl)c(Cl)c2O1` [Example 226, 1-[(4R)-7,8-dichloro-2,2-diethyl-3,4-dihydro-2H-chromen-4-yl]-3-(2-oxo-1,2,3,4-tetrahydroquinolin-7-yl)urea] are 100 nM and 12%.
For `CCCC1(CCC)C[C@@H](NC(=O)Nc2ccc3c(c2)NC(=O)CC3)c2cc(F)ccc2O1` [Example 227, 1-[(4R)-6-fluoro-2,2-dipropyl-3,4-dihydro-2H-chromen-4-yl]-3-(2-oxo-1,2,3,4-tetrahydroquinolin-7-yl)urea], on human TRPV1 [1], the IC50 was found to be 220 nM. The “human TRPV1 H^+ (max % remain)” value at human TRPV1 [2] was 19%.
`O=C1CCc2ccc(NC(=O)N[C@@H]3CC4(CCC4)Oc4ccc(F)cc43)cc2N1` [Example 228, 1-[(4R)-6-fluoro-3,4-dihydrospiro[chromene-2,1′-cyclobutan]-4-yl]-3-(2-oxo-1,2,3,4-tetrahydroquinolin-7-yl)urea]: the IC50 on human TRPV1 [1] came out at 120 nM. The “human TRPV1 H^+ (max % remain)” value on human TRPV1 [2] turned out to be 57%.
The corresponding values for `CCC1(CC)C[C@@H](NC(=O)Nc2ccc3c(c2)NC(=O)CC3)c2cc(F)ccc2O1` [Example 229, 1-[(4R)-2,2-diethyl-6-fluoro-3,4-dihydro-2H-chromen-4-yl]-3-(2-oxo-1,2,3,4-tetrahydroquinolin-7-yl)urea] are 74 nM and 36%.
Consider `CCCC1(CCC)C[C@@H](NC(=O)Nc2ccc3c(c2)NC(=O)CC3)c2cccc(F)c2O1` [Example 230, 1-[(4R)-8-fluoro-2,2-dipropyl-3,4-dihydro-2H-chromen-4-yl]-3-(2-oxo-1,2,3,4-tetrahydroquinolin-7-yl)urea], for which the concentration for half-maximal inhibition (IC50) at human TRPV1 [1] came to 38 nM. In addition, on human TRPV1 [2], the “human TRPV1 H^+ (max % remain)” value was 24%.
As for `O=C1CCc2ccc(NC(=O)N[C@@H]3CC(CF)(CF)Oc4c3ccc(Cl)c4F)cc2N1` [Example 231, 1-[(4R)-7-chloro-8-fluoro-2,2-bis(fluoromethyl)-3,4-dihydro-2H-chromen-4-yl]-3-(2-oxo-1,2,3,4-tetrahydroquinolin-7-yl)urea], at human TRPV1 [1], the IC50 is 76 nM. The “human TRPV1 H^+ (max % remain)” value at human TRPV1 [2] is listed as 55%.
Consider `CC1(C)C[C@@H](NC(=O)Nc2ccc3c(c2)NC(=O)CC3)c2cc(F)ccc2O1` [Example 232, 1-[(4R)-6-fluoro-2,2-dimethyl-3,4-dihydro-2H-chromen-4-yl]-3-(2-oxo-1,2,3,4-tetrahydroquinolin-7-yl)urea], for which, on human TRPV1 [1], the half-maximal inhibitory concentration (IC50) was 140 nM. Besides, the “human TRPV1 H^+ (max % remain)” value on human TRPV1 [2] came out at 32%.
As to `CC1(C)C[C@@H](NC(=O)Nc2ccc3c(c2)NC(=O)CC3)c2ccc(F)c(Cl)c2O1` [Example 233, 1-[(4R)-8-chloro-7-fluoro-2,2-dimethyl-3,4-dihydro-2H-chromen-4-yl]-3-(2-oxo-1,2,3,4-tetrahydroquinolin-7-yl)urea], the IC50 on human TRPV1 [1] came out at 350 nM. Besides, the “human TRPV1 H^+ (max % remain)” value at human TRPV1 [2] amounted to 37%.
On to `O=C1CCc2ccc(NC(=O)N[C@H]3CCOc4cc(OC(F)(F)F)ccc43)cc2N1` [Example 234, 1-(2-oxo-1,2,3,4-tetrahydroquinolin-7-yl)-3-[(4S)-7-(trifluoromethoxy)-3,4-dihydro-2H-chromen-4-yl]urea], for which the IC50 on human TRPV1 [1] was determined as 90 nM. In addition, the “human TRPV1 H^+ (max % remain)” value on human TRPV1 [2] is given as 27%.
For `CC1(C)C[C@@H](NC(=O)Nc2ccc3c(c2)NC(=O)CC3)c2ccc(Cl)cc2O1` [Example 235, 1-[(4R)-7-chloro-2,2-dimethyl-3,4-dihydro-2H-chromen-4-yl]-3-(2-oxo-1,2,3,4-tetrahydroquinolin-7-yl)urea], the IC50 at human TRPV1 [1] worked out at 1300 nM. Further, the “human TRPV1 H^+ (max % remain)” value on human TRPV1 [2] was 29%.
In the case of `O=C1CCc2ccc(NC(=O)N[C@@H]3CCOc4cc(OC(F)(F)F)ccc43)cc2N1` [Example 236, 1-(2-oxo-1,2,3,4-tetrahydroquinolin-7-yl)-3-[(4R)-7-(trifluoromethoxy)-3,4-dihydro-2H-chromen-4-yl]urea], on human TRPV1 [1], the IC50 was determined as 32 nM. Also, the “human TRPV1 H^+ (max % remain)” value on human TRPV1 [2] came out at 27%.
`COCC1(COC)C[C@@H](NC(=O)Nc2ccc3c(c2)NC(=O)CC3)c2cc(F)ccc2O1` [Example 237, 1-[(4R)-6-fluoro-2,2-bis(methoxymethyl)-3,4-dihydro-2H-chromen-4-yl]-3-(2-oxo-1,2,3,4-tetrahydroquinolin-7-yl)urea]: the IC50 at human TRPV1 [1] was 150 nM. The “human TRPV1 H^+ (max % remain)” value at human TRPV1 [2] came to 52%.
The like results for `O=C1CCc2ccc(NC(=O)N[C@@H]3CCOc4c3cccc4C(F)(F)F)cc2N1` [Example 238, 1-(2-oxo-1,2,3,4-tetrahydroquinolin-7-yl)-3-[(4R)-8-(trifluoromethyl)-3,4-dihydro-2H-chromen-4-yl]urea] were, in that order, 510 nM and 47%.
The corresponding values for `O=C1CCc2ccc(NC(=O)N[C@@H]3CCOc4cc(C(F)(F)F)ccc43)cc2N1` [Example 239, 1-(2-oxo-1,2,3,4-tetrahydroquinolin-7-yl)-3-[(4R)-7-(trifluoromethyl)-3,4-dihydro-2H-chromen-4-yl]urea] are 47 nM and 26%.
For `O=C1CCc2ccc(NC(=O)N[C@@H]3CCc4cc(F)ccc43)cc2N1` [Example 240, 1-[(1R)-5-fluoro-2,3-dihydro-1H-inden-1-yl]-3-(2-oxo-1,2,3,4-tetrahydroquinolin-7-yl)urea], the IC50 on human TRPV1 [1] was determined as 37 nM. Besides, on human TRPV1 [2], the “human TRPV1 H^+ (max % remain)” value was found to be 25%.
In the case of `O=C1CCc2ccc(NC(=O)N[C@H]3CC4(CCC4)Oc4ccc(F)cc43)cc2N1` [Example 242, 1-[(4S)-6-fluoro-3,4-dihydrospiro[chromene-2,1′-cyclobutan]-4-yl]-3-(2-oxo-1,2,3,4-tetrahydroquinolin-7-yl)urea], the IC50 on human TRPV1 [1] amounted to 86 nM. The “human TRPV1 H^+ (max % remain)” value at human TRPV1 [2] stood at 30%.
In the case of `CC1(C)C[C@H](NC(=O)Nc2ccc3c(c2)NC(=O)CC3)c2cc(F)ccc2O1` [Example 243, 1-[(4S)-6-fluoro-2,2-dimethyl-3,4-dihydro-2H-chromen-4-yl]-3-(2-oxo-1,2,3,4-tetrahydroquinolin-7-yl)urea], the IC50 at human TRPV1 [1] was 4900 nM. In addition, at human TRPV1 [2], the “human TRPV1 H^+ (max % remain)” value was found to be 45%.
On to `O=C1CCc2ccc(NC(=O)N[C@@H]3CC4(CCCC4)Oc4ccccc43)cc2N1` [Example 244, 1-[(4R)-3,4-dihydrospiro[chromene-2,1′-cyclopentan]-4-yl]-3-(2-oxo-1,2,3,4-tetrahydroquinolin-7-yl)urea], for which, on human TRPV1 [1], the IC50 came to 7100 nM. Further, on human TRPV1 [2], the “human TRPV1 H^+ (max % remain)” value stood at 41%.
